# Assay results from patent publication US20110046223A1, “TREATMENT OF NEUROFIBROMATOSIS” (RAMOT AT TEL-AVIV UNIVERSITY LTD., priority 2006, published 2011).
# What was measured:
# ST88-14 cells = assay: ST88-14 tumor growth in nude mice; assay type: in vivo, nude CD1-Nu male mice; conditions: six weeks
# Description: ST88-14 cells (5×10^6) in Matrigel were implanted subcutaneously (s.c.) just above the right femoral joint of nude CD1-Nu male mice (6 weeks old). Two weeks later palpable tumors were observed and the mice were separated randomly into vehicle-treated control and FTS-treated groups. Two types of treatment protocols were used. (1) The first protocol was intraperitoneal (i.p.) administration (0.1 mL) of vehicle, 1 mg/kg, 5 mg/kg or 10 mg/kg FTS (n=6 per group). The FTS solution was prepared in saline containing phosphate buffer as described in Haklai, et al., supra. (2) The second protocol was oral administration of FTS. Mice received vehicle or 20, 40, 60, or 80 mg/kg FTS (n=10 per group). The FTS mixture for oral administration was prepared in PBS/0.5% carboxymethyl cellulose. Mice were sacrificed 6 weeks after the start of the treatment, and tumors were removed and weighed. Student's t-test was used for data analysis.
# [Ozerdem, U., Angiogenesis 7:307-11 (2004)]. Thus, to determine whether FTS inhibited tumor growth in the nude mouse model, two types of treatments were preformed. The first was i.p. administration of 1, 5, or 10 mg/kg FTS, as earlier described. [Weisz, B., et al., supra.]. The second was oral administration, which required higher FTS doses of 20, 40, 60, and 80 mg/kg. Six weeks after the treatment the mice were sacrificed and tumors were removed and weighed.
# phospho-Akt = assay: serum-stimulated phospho-Akt, kinetic study; assay type: cell-based, human
# Description: Unless otherwise indicated, cells were lysed 48 hours after being treated with lysis buffer, as described in Haklai, et al., supra. […] Protein bands were visualized by ECL and quantified by densitometry with Image Master VDS-CL (Amersham) using TINA 2.0 software (Ray Tests). To obtain reliable comparisons between replicated experiments for statistical analysis, a standardization procedure was used, in which the density of each given protein band as recorded with its specific Ab, was normalized. […] The standard average density was defined as 1.0, and each of the individually determined bands was related to this value. […] Actin cytoskeletal elements were labeled with rhodamine-phalloidin, and digital fluorescence images were collected on a Zeiss LSM 510 confocal microscope fitted with fluorescein and rhodamine filters, as described in Gana-Weisz, M., et al., supra.
# First, the time courses of serum-stimulated GTP loading of Ras and serum-stimulated activation of signals downstream of Ras were determined. […]
compound,measurement,setting,value
"CC(C)=CCC/C(C)=C/CC/C(C)=C/CSc1ccccc1C(=O)O [FTS, S-farnesylthiosalicylic acid]",inhibition of tumor growth (tumor weight),"ST88-14 cells; i.p., 10 mg/kg FTS, P<0.05",49%
same,"tumor growth, dose dependence","ST88-14 cells; i.p., 1, 5, or 10 mg/kg FTS",dose-dependent inhibition of tumor growth
same,inhibition of tumor growth (tumor weight),"ST88-14 cells; oral, 80 mg/kg FTS, P<0.01",58%
same,"tumor growth, dose dependence","ST88-14 cells; oral, 20, 40, 60, and 80 mg/kg FTS",dose-dependent inhibition of tumor growth
same,serum-stimulated increase in phospho-Akt,"phospho-Akt; STS26T cells, serum-starved 24 hours, stimulated with 10% serum",inhibited
same,serum-stimulated increase in phospho-Akt,"phospho-Akt; all NF-1 cell lines (T265P21, ST88-14, 90-8)",reduced
